Patent US5739166A, “Substituted terphenyl compounds for the treatment of inflammation” (G.D. Searle & Co., priority 1994, dated 1998)

System: hyperalgesic foot withdrawal
Test: Rat Carrageenan-induced Analgesia Test
Type: in vivo, Male Sprague-Dawley rats
Settings: oral, assay performed at 50 mg/kg body weight, 3 hours after carrageenan
Description: Male Sprague-Dawley rats were treated as previously described for the Carrageenan Foot Pad Edema test. Three hours after the injection of the carrageenan, the rats were placed in a special plexiglass container with a transparent floor having a high intensity lamp as a radiant heat source; positionable under the floor. After an initial twenty minute period, thermal stimulation was begun on either the injected foot or on the contralateral uninjected foot. A photoelectric cell turned off the lamp and timer when light was interrupted by paw withdrawal. The time until the rat withdraws its foot was then measured. The withdrawal latency in seconds was determined for the control and drug-treated groups, and percent inhibition of the hyperalgesic foot withdrawal determined.

Question: COc1ccc(-c2cc(F)c(F)cc2-c2ccc(S(N)(=O)=O)cc2)cc1Cl [Example 20, 4-[2-(3-chloro-4-methoxyphenyl)-4,5-difluorophenyl]benzenesulfonamide] was tested. Which “ANALGESIA % Inhibition” value did it give?
Answer: 22%
